# Source: BindingDB's records for doi:10.1021/jm020112w (Bristol-Myers Squibb, 2002)
# pKi: −log10 of the molar value.
# Biological target: Dihydroorotate dehydrogenase (Helicobacter pylori)
# Experiment: Inhibition of dihydroorotate dehydrogenase (DHODase) of Helicobacter pylori
row,Compound,pKi
1,"Cc1ccc(CNC(=O)c2cc(C(=O)Nc3ccccc3)n(-c3ccc(Cl)cc3)n2)cc1 [1-(4-Chloro-phenyl)-1H-pyrazole-3,5-dicarboxylic acid 3-(4-methyl-benzylamide) 5-phenylamide]",7.49
2,"CC(C)CNC(=O)c1cc(C(=O)NCc2ccccc2)nn1-c1ccc(Cl)cc1 [1-(4-Chloro-phenyl)-1H-pyrazole-3,5-dicarboxylic acid 3-benzylamide 5-(isobutyl-amide)]",7.04
3,"NC(=O)c1ccc(NC(=O)c2cc(C(=O)NCc3ccccc3)nn2-c2ccc(Cl)cc2)cc1 [1-(4-Chloro-phenyl)-1H-pyrazole-3,5-dicarboxylic acid 3-benzylamide 5-[(4-carbamoyl-phenyl)-amide]]",8.22
4,"O=C(NCc1cccnc1)c1cc(C(=O)Nc2ccc(N3CCCCC3)cc2)n(-c2ccc(Cl)cc2)n1 [1-(4-Chloro-phenyl)-1H-pyrazole-3,5-dicarboxylic acid 5-[(4-piperidin-1-yl-phenyl)-amide] 3-[(pyridin-3-ylmethyl)-amide]]",8.10
5,"O=C(NCc1cccnc1)c1cc(C(=O)Nc2ccccc2)n(-c2ccc(Cl)cc2)n1 [1-(4-Chloro-phenyl)-1H-pyrazole-3,5-dicarboxylic acid 5-phenylamide 3-[(pyridin-3-ylmethyl)-amide]]",8.40
6,"COc1ccc(-n2nc(C(=O)NCC(C)C)cc2C(=O)Nc2ccc(C(=O)N3CCCC3)cc2)cc1 [1-(4-Methoxy-phenyl)-1H-pyrazole-3,5-dicarboxylic acid 3-(isobutyl-amide) 5-{[4-(pyrrolidine-1-carbonyl)-phenyl]-amide}]",6.86
7,"COc1ccc(-n2nc(C(=O)NC(c3ccccc3)c3ccccc3)cc2C(=O)NCc2ccccc2)cc1 [1-(4-Methoxy-phenyl)-1H-pyrazole-3,5-dicarboxylic acid 3-benzhydryl-amide 5-benzylamide]",5.62
8,"COc1ccc(-n2nc(C(=O)NCc3ccccc3)cc2C(=O)Nc2ccc(C(=O)N3CCCC3)cc2)cc1 [1-(4-Methoxy-phenyl)-1H-pyrazole-3,5-dicarboxylic acid 3-benzylamide 5-{[4-(pyrrolidine-1-carbonyl)-phenyl]-amide}]",7.59
9,"COc1ccc(-n2nc(C(=O)NCc3cccnc3)cc2C(=O)Nc2ccccc2)cc1 [1-(4-Methoxy-phenyl)-1H-pyrazole-3,5-dicarboxylic acid 5-phenylamide 3-[(pyridin-3-ylmethyl)-amide]]",7.92
10,"COc1ccc(-n2nc(C(=O)NCC3CCCO3)cc2C(=O)Nc2ccc(C(=O)N3CCCC3)cc2)cc1 (stereo unspecified) [1-(4-Methoxy-phenyl)-1H-pyrazole-3,5-dicarboxylic acid 5-{[4-(pyrrolidine-1-carbonyl)-phenyl]-amide} 3-[(tetrahydro-furan-2-ylmethyl)-amide]]",6.48
11,"O=C(NCc1ccccc1)c1cc(C(=O)Nc2ccccc2)n(-c2ccc(Cl)cc2)n1 [X1-(4-Chloro-phenyl)-1H-pyrazole-3,5-dicarboxylic acid 3-benzylamide 5-phenylamide]",8.40
